Patent publication US10711004B2 (Genentech, Inc., priority 2018, dated 2020)
Where two headings read alike, the source gives them in different places.

Target: human TRPA1 channel (Homo sapiens (Human), UniProt O75762)
Test: hTRPA1 CHO Ca2+ FLIPR Tetra assay, block of cinnamaldehyde induced calcium influx
Format: cell-based
Conditions: CHO cells expressing TRPA1, Hill coefficient fixed to 1.5
Protocol: CHO cells expressing TRPA1 were plated into 384-well plates, incubated overnight at 37° C., and loaded with BD calcium indicator dye for 1 hr at 37° C. followed by 15 minutes at room temperature. The assay buffer was Hank's Balanced Salt Solution (HBSS) containing 20 mM HEPES (pH readjusted to 7.4) along with 0.02% BSA.
Following dye load and plate cool down, compounds were added to the cells using FLIPR Tetra. Plates were then incubated with compounds for 10 minutes or 90 minutes at room temperature prior to adding agonist. Following this incubation, about an EC50 concentration of cinnamaldehyde (75) was added to active the channels and block of cinnamaldehyde induced calcium influx was measured.
Fixing the Hill coefficient will generally reduce variability of the IC50 determination. The IC50 results were individually examined to make sure the MIN and MAX points were set correctly prior to validation of the results.

[1] = read-out: hTRPA1 IC50 (10 min), compounds incubated 10 minutes at room temperature before cinnamaldehyde agonist
[2] = read-out: hTRPA1 IC50 (90 min), compounds incubated 90 minutes at room temperature before cinnamaldehyde agonist

Sequence of human TRPA1 channel (O75762 whole entry): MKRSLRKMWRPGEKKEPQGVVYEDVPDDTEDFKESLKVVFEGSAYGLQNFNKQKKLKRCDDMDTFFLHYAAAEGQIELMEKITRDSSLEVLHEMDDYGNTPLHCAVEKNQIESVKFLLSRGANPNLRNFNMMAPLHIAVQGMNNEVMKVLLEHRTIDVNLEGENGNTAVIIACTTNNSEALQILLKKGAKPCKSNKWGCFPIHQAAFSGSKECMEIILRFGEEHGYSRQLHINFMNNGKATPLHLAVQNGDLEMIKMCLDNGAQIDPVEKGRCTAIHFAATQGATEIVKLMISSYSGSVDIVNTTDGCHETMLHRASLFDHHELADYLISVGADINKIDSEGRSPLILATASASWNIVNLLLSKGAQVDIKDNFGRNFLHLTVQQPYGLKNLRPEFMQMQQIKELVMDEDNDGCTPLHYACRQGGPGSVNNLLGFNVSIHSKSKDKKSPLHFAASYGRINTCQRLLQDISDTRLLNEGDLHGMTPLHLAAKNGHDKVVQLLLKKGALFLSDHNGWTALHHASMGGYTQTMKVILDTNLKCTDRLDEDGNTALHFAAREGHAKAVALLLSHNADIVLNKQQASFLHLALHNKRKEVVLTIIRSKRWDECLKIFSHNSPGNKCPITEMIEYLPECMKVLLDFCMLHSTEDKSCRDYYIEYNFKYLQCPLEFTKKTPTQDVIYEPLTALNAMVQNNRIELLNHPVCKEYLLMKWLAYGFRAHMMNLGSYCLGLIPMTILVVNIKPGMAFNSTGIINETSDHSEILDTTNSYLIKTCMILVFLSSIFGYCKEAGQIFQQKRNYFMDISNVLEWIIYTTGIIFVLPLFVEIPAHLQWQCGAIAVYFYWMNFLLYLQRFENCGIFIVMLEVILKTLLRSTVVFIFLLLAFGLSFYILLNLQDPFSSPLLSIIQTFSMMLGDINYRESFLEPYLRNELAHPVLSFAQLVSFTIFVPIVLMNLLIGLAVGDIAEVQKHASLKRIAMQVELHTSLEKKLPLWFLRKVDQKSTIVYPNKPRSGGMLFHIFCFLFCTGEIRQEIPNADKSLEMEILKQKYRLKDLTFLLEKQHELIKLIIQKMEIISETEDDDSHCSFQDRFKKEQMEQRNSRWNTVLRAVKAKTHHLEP

Row | SMILES | IC50 [1] [µM] | IC50 [2] [µM]
1 | Cn1cnc2ncn(Cc3nc([C@H]4[C@@H]5CN(c6ccc(OC(F)F)cc6)C[C@@H]54)no3)c(=O)c21 [Example Compound 12, 7-methyl-1-[[3-[(1R,5S,6 r)-3-[4-(difluoromethoxy)phenyl]-3-azabicyclo[3.1.0]hexan-6-yl]-1,2,4-oxadiazol-5-yl]methyl]purin-6-one] | 0.0504 | –
2 | COc1cccc(N2C[C@@H]3[C@H](C2)[C@H]3c2noc(Cn3cnc4ncn(C)c4c3=O)n2)c1 [Example Compound 13, 7-methyl-1-[[3-[(1R,5S,6 r)-3-(3-methoxyphenyl)-3-azabicyclo[3.1.0]hexan-6-yl]-1,2,4-oxadiazol-5-yl]methyl]purin-6-one] | 0.158 | –
3 | Cc1ccnc2ncn(Cc3nc([C@H]4C[C@H](c5ccc(Cl)cc5)C4)no3)c(=O)c12 [Example Compound 17, 3-((3-((trans)-3-(4-chlorophenyl)cyclobutyl)-1,2,4-oxadiazol-5-yl)methyl)-5-methylpyrido[2,3-d]pyrimidin-4(3H)-one] | 0.0213 | –
4 | Cn1cnc2ncn(Cc3nc([C@H]4[C@@H]5CN(c6cccnc6)C[C@@H]54)no3)c(=O)c21 [Example Compound 18, 7-methyl-1-[[3-[(1R,5S,6r)-3-(3-pyridyl)-3-azabicyclo[3.1.0]hexan-6-yl]-1,2,4-oxadiazol-5-yl]methyl]purin-6-one] | 0.778 | –
5 | Cn1cnc2c(C#N)nn(Cc3nc([C@H]4[C@@H]5CN(c6ccccc6)C[C@@H]54)no3)c2c1=O [Example Compound 22, 6-methyl-7-oxo-1-[[3-[(1R,5S,6s)-3-phenyl-3-azabicyclo[3.1.0]hexan-6-yl]-1,2,4-oxadiazol-5-yl]methyl]pyrazolo[4,3-d]pyrimidine-3-carbonitrile] | 0.352 | –
6 | Cn1cnc2ncn(Cc3nc([C@@H]4[C@@H]5CN(c6cccc(Cl)c6)C[C@@H]54)no3)c(=O)c21 [Example Compound 24, 7-methyl-1-[[3-[(1R,5S,6 r)-3-(3-chlorophenyl)-3-azabicyclo[3.1.0]hexan-6-yl]-1,2,4-oxadiazol-5-yl]methyl]purin-6-one] | 0.00838 | –
7 | Cn1cnc2ncn(Cc3nc([C@H]4[C@@H]5CN(c6ccc(Cl)cc6)C[C@@H]54)no3)c(=O)c21 [Example Compound 25, 7-methyl-1-[[3-[(1R,5S,6 r)-3-(4-chlorophenyl)-3-azabicyclo[3.1.0]hexan-6-yl]-1,2,4-oxadiazol-5-yl]methyl]purin-6-one] | 0.0204 | –
8 | Cc1ccnc2ncn(Cc3nc(C4Cc5ccccc5C4)no3)c(=O)c12 [Example Compound 27, 3-((3-(2,3-dihydro-1H-inden-2-yl)-1,2,4-oxadiazol-5-yl)methyl)-5-methylpyrido[2,3-d]pyrimidin-4(3H)-one] | 0.531 | –
9 | Cc1ccnc2ncn(Cc3nc([C@H]4[C@@H]5CN(c6ccc(Cl)cc6)C[C@@H]54)no3)c(=O)c12 [Example Compound 29, 5-methyl-3-[[3-[(1R,5S,6r)-3-(4-chlorophenyl)-3-azabicyclo[3.1.0]hexan-6-yl]-1,2,4-oxadiazol-5-yl]methyl]pyrido[2,3-d]pyrimidin-4-one] | 0.29 | –
10 | Cn1cnc2ncn(Cc3nc([C@H]4[C@@H]5CN(c6cccc(C(F)(F)F)c6)C[C@@H]54)no3)c(=O)c21 [Example Compound 30, 7-methyl-1-[[3-[(1R,5S,6r)-3-[3-(trifluoromethyl)phenyl]-3-azabicyclo[3.1.0]hexan-6-yl]-1,2,4-oxadiazol-5-yl]methyl]purin-6-one] | 0.0527 | –
11 | Cn1cnc2ncn(Cc3nc([C@H]4[C@@H]5CN(c6ccc(C(F)(F)F)cc6)C[C@@H]54)no3)c(=O)c21 [Example Compound 31, 7-methyl-1-[[3-[(1R,5S,6r)-3-[4-(trifluoromethyl)phenyl]-3-azabicyclo[3.1.0]hexan-6-yl]-1,2,4-oxadiazol-5-yl]methyl]purin-6-one] | 0.0971 | –
12 | Cn1cnc2ncn(Cc3nc([C@H]4[C@@H]5CN(c6ccc(C=O)cc6)C[C@@H]54)no3)c(=O)c21 [Example Compound 32, 4-[(1R,5S,6r)-6-[5-[(7-methyl-6-oxo-purin-1-yl)methyl]-1,2,4-oxadiazol-3-yl]-3-azabicyclo[3.1.0]hexan-3-yl]benzaldehyde] | 0.0549 | –
13 | Cn1cnc2ncn(Cc3nc([C@H]4[C@@H]5CN(c6ccc7ccccc7c6)C[C@@H]54)no3)c(=O)c21 [Example Compound 33, 7-methyl-1-[[3-[(1R,5S,6r)-3-[2-naphthyl]-3-azabicyclo[3.1.0]hexan-6-yl]-1,2,4-oxadiazol-5-yl]methyl]purin-6-one] | 0.00731 | –
14 | Cn1cnc2ncn(Cc3nc([C@H]4[C@@H]5CN(c6ccc(Cl)nc6)C[C@@H]54)no3)c(=O)c21 [Example Compound 34, 7-methyl-1-[[3-[(1R,5S,6r)-3-[6-chloro-3-pyridyl]-3-azabicyclo[3.1.0]hexan-6-yl]-1,2,4-oxadiazol-5-yl]methyl]purin-6-one] | 0.464 | –
15 | COc1ccc(N2C[C@@H]3[C@H](C2)[C@H]3c2noc(Cn3cnc4ncn(C)c4c3=O)n2)cc1 [Example Compound 35, 7-methyl-1-[[3-[(1R,5S,6r)-3-[4-methoxyphenyl]-3-azabicyclo[3.1.0]hexan-6-yl]-1,2,4-oxadiazol-5-yl]methyl]purin-6-one] | 0.048 | –
16 | Cc1cncc2ncn(Cc3nc([C@H]4[C@@H]5CN(c6ccc(Cl)cc6)C[C@@H]54)no3)c(=O)c12 [Example Compound 36, 5-methyl-3-[[3-[(1R,5S,6r)-3-(4-chlorophenyl)-3-azabicyclo[3.1.0]hexan-6-yl]-1,2,4-oxadiazol-5-yl]methyl]pyrido[3,4-d]pyrimidin-4-one] | 0.0714 | –
17 | Cc1cncc2ncn(Cc3nc([C@H]4C[C@](F)(c5ccc(Cl)cc5)C4)no3)c(=O)c12 [Example Compound 37, 3-((3-((1s,3s)-3-(4-chlorophenyl)-3-fluorocyclobutyl)-1,2,4-oxadiazol-5-yl)methyl)-5-methylpyrido[3,4-d]pyrimidin-4(3H)-one] | 0.0228 | –
18 | Cc1ccnc2ncn(Cc3nc([C@H]4C[C@](F)(c5ccc(Cl)cc5)C4)no3)c(=O)c12 [Example Compound 38, 3-((3-((1s,3s)-3-(4-chlorophenyl)-3-fluorocyclobutyl)-1,2,4-oxadiazol-5-yl)methyl)-5-methylpyrido[2,3-d]pyrimidin-4(3H)-one] | 0.0289 | –
19 | Cn1cnc2ncn(Cc3nc([C@H]4[C@@H]5CN(c6cc(F)cc(F)c6)C[C@@H]54)no3)c(=O)c21 [Example Compound 92, 1-((3-((1R,5S,6r)-3-(3,5-difluorophenyl)-3-azabicyclo[3.1.0]hexan-6-yl)-1,2,4-oxadiazol-5-yl)methyl)-7-methyl-1,7-dihydro-6H-purin-6-one] | 0.0206 | 0.0031
20 | Cn1cnc2ncn(Cc3nc([C@H]4[C@@H]5C=C(c6ccc(F)c(F)c6)C[C@@H]54)no3)c(=O)c21 [Example Compound 93, 1-((3-((1S,5S,6R)-3-(3,4-difluorophenyl)bicyclo[3.1.0]hex-2-en-6-yl)-1,2,4-oxadiazol-5-yl)methyl)-7-methyl-1,7-dihydro-6H-purin-6-one] | 0.0127 | 0.0039
21 | Cn1cnc2ncn(Cc3nc([C@@H]4[C@H]5C=C(c6ccc(F)c(F)c6)C[C@H]54)no3)c(=O)c21 [Example Compound 94, 1-((3-((1R,5R,6S)-3-(3,4-difluorophenyl)bicyclo[3.1.0]hex-2-en-6-yl)-1,2,4-oxadiazol-5-yl)methyl)-7-methyl-1,7-dihydro-6H-purin-6-one] | 0.00935 | 0.0049
22 | Cc1cnn2ncn(Cc3nc([C@H]4[C@@H]5CN(c6ccccc6)C[C@@H]54)no3)c(=O)c12 [Example Compound 95, 5-methyl-3-((3-((1R,5S,6r)-3-phenyl-3-azabicyclo[3.1.0]hexan-6-yl)-1,2,4-oxadiazol-5-yl)methyl)pyrazolo[5,1f][1,2,4]triazin-4(3H)-one] | 0.00811 | 0.0035
23 | O=c1c2cccnc2cnn1Cc1nc([C@H]2[C@@H]3CN(c4cccc(F)c4)C[C@@H]32)no1 [Example Compound 96, 6-((3-((1R,5S,6r)-3-(3-fluorophenyl)-3-azabicyclo[3.1.0]hexan-6-yl)-1,2,4-oxadiazol-5-yl)methyl)pyrido[2,3-d]pyridazin-5(6H)-one] | 0.00839 | 0.0051
24 | Cn1cnc2ncn(Cc3nc([C@H]4[C@@H]5CN(c6ccccc6F)C[C@@H]54)no3)c(=O)c21 [Example Compound 97, 1-((3-((1R,5S,6r)-3-(2-fluorophenyl)-3-azabicyclo[3.1.0]hexan-6-yl)-1,2,4-oxadiazol-5-yl)methyl)-7-methyl-1,7-dihydro-6H-purin-6-one] | 0.0481 | 0.019
25 | Cn1cnc2ncn(Cc3nc([C@H]4[C@@H]5CN(c6ccccc6C#N)C[C@@H]54)no3)c(=O)c21 [Example Compound 98, 2-((1R,5S,6r)-6-(5-((7-methyl-6-oxo-6,7-dihydro-1H-purin-1-yl)methyl)-1,2,4-oxadiazol-3-yl)-3-azabicyclo[3.1.0]hexan-3-yl)benzonitrile] | 0.157 | 0.1
26 | Cn1cnc2ncn(Cc3nc([C@H]4[C@@H]5CN(c6cc(F)ccc6F)C[C@@H]54)no3)c(=O)c21 [Example Compound 99, 1-((3-((1R,5S,6r)-3-(2,5-difluorophenyl)-3-azabicyclo[3.1.0]hexan-6-yl)-1,2,4-oxadiazol-5-yl)methyl)-7-methyl-1,7-dihydro-6H-purin-6-one] | 0.0151 | 0.0063
